Tests used:
SAS cells = conditions: read-out: cytotoxicity IC50, SAS oral cancer cells; cited from earlier work
OEC-M1 cells = conditions: read-out: cytotoxicity IC50, OEC-M1 oral cancer cells; cited from earlier work
[1] = biological target: human placental glutathione S-transferase (GST); conditions: read-out: inhibition of human placental GST activity IC50; cited from earlier work
MDA-MB-231 cells = test: HGF-induced cell migration wound-healing assay; conditions: Homo sapiens, MDA-MB-231, 24 h, read-out: Antimigratory activity IC50 ± SEM, MDA-MB-231, wound-healing assay, HGF 40 ng/mL, 24 h

IC50 (MDA-MB-231 cells) [µM]	Structure (SMILES)	IC50 (SAS cells) [µM]	IC50 (OEC-M1 cells) [µM]	IC50 [1] [µM]
–	O=C(/C=C/c1ccc(O)cc1)OCCc1ccc(O)cc1 [Compound 6, Tyrosol coumarate]	> 100	> 100	–
–	COc1cc(/C=C/COC(=O)/C=C/c2ccc(O)c(OC)c2)ccc1O [Compound 40, coniferyl ferulate]	–	–	0.3
< 5	COc1cc(/C=C/C=N/CCc2ccc(O)cc2)cc(OC)c1O [Compound 11]	–	–	–
–	COc1cc(/C=C/C(=O)OCCc2ccc(O)cc2)ccc1O [Compound 5, Tyrosol ferulate]	> 100	> 100	–

From publication PMC5073051 (European journal of medicinal chemistry, 2016)
